“And” between values parts separate entries of the source, which are not always exact repeats. Equal entries are not always repeated. Inconclusive results and toxic doses are left out.
Test system: B6C3F1 mice, Lewis lung carcinoma iv, survival T/C
Assay: NCI In Vivo Anticancer Drug Screen. Data for tumor model Lewis Lung Carcinoma (intravenous) in B6C3F1 mice
Settings: endpoint: median survival time, higher = longer survival
In short: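 Transplantable tumor in mice; compound treated vs vehicle controls; read-out survival; value = treated/control (T/C).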

[1] = dose: 0.78 mg/kg/injection, schedule: Q01DX009 (ip), vehicle: saline with Tween-80
[2] = dose: 1.56 mg/kg/injection, schedule: Q01DX009 (ip), vehicle: saline with Tween-80
[3] = dose: 3.12 mg/kg/injection, schedule: Q01DX009 (ip), vehicle: saline with Tween-80
[4] = dose: 6.25 mg/kg/injection, schedule: Q01DX009 (ip), vehicle: saline with Tween-80
[5] = dose: 12.5 mg/kg/injection, schedule: Q01DX009 (ip), vehicle: saline with Tween-80
[6] = dose: 25.0 mg/kg/injection, schedule: Q01DX009 (ip), vehicle: saline with Tween-80
[7] = dose: 50.0 mg/kg/injection, schedule: Q01DX009 (ip), vehicle: saline with Tween-80
[8] = dose: 25.0 mg/kg/injection, schedule: Q01DX009 (ip), vehicle: saline
[9] = dose: 50.0 mg/kg/injection, schedule: Q01DX009 (ip), vehicle: saline
[10] = dose: 100.0 mg/kg/injection, schedule: Q01DX009 (ip), vehicle: saline
[11] = dose: 12.5 mg/kg/injection, schedule: Q01DX009 (ip), vehicle: saline
[12] = dose: 200.0 mg/kg/injection, schedule: Q01DX009 (ip), vehicle: saline

SMILES: C[CH2][Pb]([CH2]C)([CH2]C)[O]C(=O)COc1ccccc1
- T/C (dose: 0.08 mg/kg/injection, schedule: Q01DX009 (ip), vehicle: saline with Tween-80): 107 % of control
- T/C (dose: 0.15 mg/kg/injection, schedule: Q01DX009 (ip), vehicle: saline with Tween-80): 99 % of control
- T/C (dose: 0.3 mg/kg/injection, schedule: Q01DX009 (ip), vehicle: saline with Tween-80): 99 % of control
- T/C (dose: 0.6 mg/kg/injection, schedule: Q01DX009 (ip), vehicle: saline with Tween-80): 109 % of control
- T/C (dose: 1.2 mg/kg/injection, schedule: Q01DX009 (ip), vehicle: saline with Tween-80): 108 % of control

SMILES: C[CH2][Sn]([CH2]C)([CH2]C(=O)OC)[CH2]C(=O)OC
- T/C [1]: 102 % of control
- T/C [2]: 104 % of control
- T/C [3]: 99 % of control
- T/C [4]: 101 % of control
- T/C [5]: 104 % of control and 105 % of control

SMILES: Cc1ccc2c(c1)N=C(Nc1ccccc1)N=S2(C)=O (stereo unspecified)
- T/C [4]: 99 % of control
- T/C [5]: 92 % of control
- T/C [6]: 93 % of control
- T/C [7]: 95 % of control
- T/C (dose: 100.0 mg/kg/injection, schedule: Q01DX009 (ip), vehicle: saline with Tween-80): 108 % of control
- T/C (dose: 200.0 mg/kg/injection, schedule: Q01DX009 (ip), vehicle: saline with Tween-80): 119 % of control

SMILES: O=CC(O)C(O)C(O)C(O)CO (stereo unspecified)
- T/C (dose: 75.0 mg/kg/injection, schedule: Q01DX009 (ip), vehicle: saline): 101 % of control
- T/C (dose: 150.0 mg/kg/injection, schedule: Q01DX009 (ip), vehicle: saline): 97 % of control
- T/C (dose: 300.0 mg/kg/injection, schedule: Q01DX009 (ip), vehicle: saline): 97 % of control
- T/C (dose: 600.0 mg/kg/injection, schedule: Q01DX009 (ip), vehicle: saline): 97 % of control
- T/C (dose: 1200.0 mg/kg/injection, schedule: Q01DX009 (ip), vehicle: saline): 96 % of control

SMILES: O=C1CCCCC1C(=O)C(F)(F)F (stereo unspecified)
- T/C (dose: 12.5 mg/kg/injection, schedule: Q01DX009 (ip), vehicle: saline + Tween-80 + alcohol): 96 % of control
- T/C (dose: 25.0 mg/kg/injection, schedule: Q01DX009 (ip), vehicle: saline + Tween-80 + alcohol): 111 % of control
- T/C (dose: 50.0 mg/kg/injection, schedule: Q01DX009 (ip), vehicle: saline + Tween-80 + alcohol): 94 % of control

SMILES: N=c1ccn2c(n1)OC1C(O)C(CO)OC12 (stereo unspecified)
- T/C [8]: 101 % of control
- T/C [9]: 102 % of control
- T/C [10]: 107 % of control

SMILES: C=C(C)C1C2CC3(C)C4(CO4)C4OC4C3(O)C1C(=O)O2 (stereo unspecified)
- T/C (dose: 0.25 mg/kg/injection, schedule: Q01DX008 (ip), vehicle: Klucel (hydroxypropylcellulose) (HPC)): 108 % of control
- T/C (dose: 0.5 mg/kg/injection, schedule: Q01DX008 (ip), vehicle: Klucel (hydroxypropylcellulose) (HPC)): 102 % of control
- T/C (dose: 1.0 mg/kg/injection, schedule: Q01DX008 (ip), vehicle: Klucel (hydroxypropylcellulose) (HPC)): 108 % of control
- T/C (dose: 2.0 mg/kg/injection, schedule: Q01DX008 (ip), vehicle: Klucel (hydroxypropylcellulose) (HPC)): 105 % of control

SMILES: FC(F)(F)c1nc2nc(Cl)c(Cl)nc2[nH]1
- T/C [4]: 98 % of control
- T/C [5]: 106 % of control
- T/C [6]: 106 % of control
- T/C [7]: 93 % of control

SMILES: O=C(O)C1CSCN1 (stereo unspecified)
- T/C (dose: 3.12 mg/kg/injection, schedule: Q01DX009 (ip), vehicle: saline): 99 % of control
- T/C (dose: 6.25 mg/kg/injection, schedule: Q01DX009 (ip), vehicle: saline): 108 % of control
- T/C [11]: 100 % of control
- T/C [8]: 101 % of control
- T/C [9]: 101 % of control
- T/C [10]: 106 % of control

SMILES: Cc1cc(NS(=O)(=O)c2ccc(N=Nc3cc(N=Nc4ccc(S(=O)(=O)Nc5cc(C)nc(C)n5)cc4)c4c(NC(=O)C(Cl)Cl)cccc4c3OC(=O)C(Cl)Cl)cc2)nc(C)n1 (tested in a mixture with another compound)
- T/C (dose: 25.0 mg/kg/injection, schedule: Q01DX009 (ip), vehicle: suspension in saline): 105 % of control
- T/C (dose: 50.0 mg/kg/injection, schedule: Q01DX009 (ip), vehicle: suspension in saline): 90 % of control
- T/C (dose: 100.0 mg/kg/injection, schedule: Q01DX009 (ip), vehicle: suspension in saline): 88 % of control
- T/C (dose: 200.0 mg/kg/injection, schedule: Q01DX009 (ip), vehicle: suspension in saline): 88 % of control

SMILES: OCC12COCN1COC2
- T/C [11]: 103 % of control and 104 % of control
- T/C [8]: 98 % of control and 101 % of control
- T/C [9]: 100 % of control and 106 % of control
- T/C [10]: 97 % of control and 102 % of control
- T/C [12]: 98 % of control
- T/C (dose: 400.0 mg/kg/injection, schedule: Q01DX009 (ip), vehicle: saline): 104 % of control and 112 % of control

SMILES: COC(=O)C[C@](O)(CCC(C)(C)O)C(=O)O[C@@H]1C(OC)=C[C@]23CCCN2CCc2cc4c(cc2[C@H]13)OCO4
- T/C (dose: 0.25 mg/kg/injection, schedule: Q01DX009 (ip), vehicle: saline): 98 % of control and 104 % of control
- T/C (dose: 0.5 mg/kg/injection, schedule: Q01DX009 (ip), vehicle: saline): 103 % of control and 106 % of control
- T/C (dose: 1.0 mg/kg/injection, schedule: Q01DX009 (ip), vehicle: saline): 94 % of control and 102 % of control

SMILES: CCCCC(=O)OCC1OC(n2cnc3c(=S)nc[nH]c32)C(OC(=O)CCCC)C1OC(=O)CCCC (stereo unspecified)
- T/C [5]: 99 % of control
- T/C [6]: 100 % of control

SMILES: Cc1cc(=NO)cc(C)n1O
- T/C (dose: 25.0 mg/kg/injection, schedule: Q01DX009 (ip), vehicle: distilled water + alcohol): 105 % of control
- T/C (dose: 50.0 mg/kg/injection, schedule: Q01DX009 (ip), vehicle: distilled water + alcohol): 95 % of control and 102 % of control
- T/C (dose: 100.0 mg/kg/injection, schedule: Q01DX009 (ip), vehicle: distilled water + alcohol): 96 % of control and 102 % of control
- T/C (dose: 200.0 mg/kg/injection, schedule: Q01DX009 (ip), vehicle: distilled water + alcohol): 97 % of control and 104 % of control
- T/C (dose: 400.0 mg/kg/injection, schedule: Q01DX009 (ip), vehicle: distilled water + alcohol): 97 % of control and 102 % of control

SMILES: Oc1c(Cl)cc(C(c2cc(Cl)c(O)c(Cl)c2)C(c2cc(Cl)c(O)c(Cl)c2)c2cc(Cl)c(O)c(Cl)c2)cc1Cl
- T/C (dose: 12.5 mg/kg/injection, schedule: Q01DX009 (ip), vehicle: Klucel (hydroxypropylcellulose) (HPC)): 98 % of control
- T/C (dose: 25.0 mg/kg/injection, schedule: Q01DX009 (ip), vehicle: Klucel (hydroxypropylcellulose) (HPC)): 101 % of control
- T/C (dose: 50.0 mg/kg/injection, schedule: Q01DX009 (ip), vehicle: Klucel (hydroxypropylcellulose) (HPC)): 104 % of control
- T/C (dose: 100.0 mg/kg/injection, schedule: Q01DX009 (ip), vehicle: Klucel (hydroxypropylcellulose) (HPC)): 103 % of control
- T/C (dose: 200.0 mg/kg/injection, schedule: Q01DX009 (ip), vehicle: Klucel (hydroxypropylcellulose) (HPC)): 106 % of control

SMILES: NC(=O)/C=C/C(=O)c1c(Cl)cccc1Cl
- T/C (dose: 0.79 mg/kg/injection, schedule: Q01DX009 (ip), vehicle: saline with Tween-80): 111 % of control
- T/C [2]: 88 % of control
- T/C [3]: 117 % of control
- T/C [4]: 103 % of control
- T/C [5]: 108 % of control

SMILES: COc1cccc2c1C(=O)c1c(O)c3c(c(O)c1C2=O)C[C@@](O)(C(C)=O)C[C@@H]3OC1CC(N(Cc2ccccc2)Cc2ccccc2)C(O)C(C)O1 (stereo partly specified)
- T/C (dose: 1.5 mg/kg/injection, schedule: Q01DX009 (ip), vehicle: saline with Tween-80): 104 % of control
- T/C (dose: 1.5 mg/kg/injection, schedule: Q01DX009 (ip), vehicle: water): 96 % of control
- T/C [2]: 103 % of control
- T/C (dose: 3.0 mg/kg/injection, schedule: Q01DX009 (ip), vehicle: saline with Tween-80): 112 % of control
- T/C (dose: 3.0 mg/kg/injection, schedule: Q01DX009 (ip), vehicle: water): 99 % of control
- T/C [3]: 114 % of control
- T/C (dose: 6.0 mg/kg/injection, schedule: Q01DX009 (ip), vehicle: saline with Tween-80): 113 % of control
- T/C [4]: 112 % of control and 116 % of control

SMILES: CC(=O)OC1(C)CC(C)C(=O)C(C(O)CC2CC(=O)NC(=O)C2)C1 (stereo unspecified)
- T/C (dose: 15.6 micrograms/kg/injection, schedule: Q01DX009 (ip), vehicle: saline): 96 % of control
- T/C (dose: 31.3 micrograms/kg/injection, schedule: Q01DX009 (ip), vehicle: saline): 95 % of control
- T/C (dose: 62.5 micrograms/kg/injection, schedule: Q01DX009 (ip), vehicle: saline): 100 % of control
- T/C (dose: 125.0 micrograms/kg/injection, schedule: Q01DX009 (ip), vehicle: saline): 100 % of control
- T/C (dose: 250.0 micrograms/kg/injection, schedule: Q01DX009 (ip), vehicle: saline): 107 % of control

SMILES: CC(C)(C)N1CC1CNC(=O)C(=O)NCC1CN1C(C)(C)C (stereo unspecified)
- T/C (dose: 0.39 mg/kg/injection, schedule: Q01DX009 (ip), vehicle: saline with Tween-80): 99 % of control
- T/C [1]: 102 % of control and 108 % of control
- T/C [2]: 105 % of control and 106 % of control
- T/C [3]: 101 % of control and 122 % of control
- T/C [4]: 104 % of control and 111 % of control
- T/C [5]: 108 % of control and 123 % of control

SMILES: O=C(O)CC(NC(=O)CP(=O)(O)O)C(=O)O (stereo unspecified)
- T/C [11]: 99 % of control
- T/C [8]: 103 % of control
- T/C [10]: 158 % of control
- T/C [12]: 187 % of control

SMILES: Cc1oc2c(C)c3oc(=O)cc(C)c3cc2c1CCl
- T/C [5]: 103 % of control
- T/C [6]: 101 % of control

— PubChem BioAssay AID276 (DTP/NCI, 2004)
